Patent publication US10066208B2, “Kit and method for promoting mesenchymal stem cell differentiation” (priority 2014, dated 2018)

Legend:
mesenchymal stem cell [1] = assay: Real-time PCR gene expression of mesenchymal stem cell, 2-dimensional plate culture; assay type: cell-based, Wistar rats
From the text: (§1) The Isolation and Culture of the Mesenchymal Stem Cell • 1. The cell source was taken from the four limbs of two-week old Wistar rats. Rats were sacrificed and immersed in 75% alcohol. The operation process for taking four limbs was under half sterile environment. • 2. During the cellular collecting processes, sterilized equipments were used in the whole processes. Both tibia and femur of the lower limb were taken. The tip of the scissor was used to separate the bone and the muscle. The knee joints and the hip joints were taken down along the bones; the part near the ankle was difficult to remove completely, so a direct cut was made close to the ankle joints. Only the humerus in upper limb had enough amounts of cells, so just took humerus and the scapula was processed as ankle joints in having a direct cut. Finally the limbs were soaked and washed in phosphate buffer solution (PBS) with 10% antibiotics (penicillin 10,000/ml, streptomycin 10 mg/ml, amphotericin-B 0.025 mg/ml). • 3. The muscle on the limbs was clearly removed under solution, the protruding parts of the two ends were cut out and soaked into new PBS (containing 1% antibiotics). Cells were washed out by syringe filled with PBS. • 4. PBS containing cells was placed in centrifuge tubes and centrifugated at 2000 rpm for 5 minutes. The red blood cells were suspended cells which adhered to and flowed with the mesenchymal stem cell. The supernatant was carefully removed. • 5. Hank's Balanced Salt Solution (HBSS) was added into the centrifugated cells. After mixing up, 5 mL of HBSS mixed with cells was added into 5 mL of Ficoll separating solution and centrifugated at 18-20° C. at the speed 300 g for 40 minutes. • 6. After centrifugation, the supernatant was sucked out; large amount of PBS was added to dilute the Ficoll separating solution and washed for 2-3 times. • 7. Medium was added into the centrifugated cells and mixed up for culturing. Dulbecco's Modified Eagle Medium (DMEM) with 10% fetal bovine serum (FBS) was used for the stem cell medium in this example. • 8. After the cells attached, the medium was changed every 2-3 days. When the cells was fully confluent, subcultured as the proportion of one to three or one to four.
(§2) The gene expression of the mesenchymal stem cell was examined by Real-time PCR. The results were used for determining the medium formulation in the following scaffold culture and bioreactor culture. The primers used in the present invention were shown as the following table:
The cells cultured in DMEM with 10% FBS were used as the control group.

mesenchymal stem cell [2] = assay: Alcian Blue stain of mesenchymal stem cell condensation and glycosaminoglycan secretion, 2-dimensional plate culture; assay type: cell-based, Wistar rats; conditions: 3 and 7 days, vs control without kartogenin
From the text: as §1, with “The supernatant was carefully removed. • 5. Hank's Balanced Salt Solution (HBSS) was added into the centrifugated cells. After mixing up, 5 mL of HBSS mixed with cells was added into 5 mL of Ficoll separating solution and centrifugated at 18-20° C. at the speed 300 g for 40 minutes. • 6. After centrifugation, the supernatant was sucked out; large amount of PBS was added to dilute the Ficoll separating solution and washed for 2-3 times. • 7. Medium was added into the centrifugated cells and mixed up for culturing. Dulbecco's Modified Eagle Medium (DMEM) with 10% fetal bovine serum (FBS) was used for the stem cell medium in this example. • 8. After the cells attached, the medium was changed every 2-3 days. When the cells was fully confluent, subcultured as the proportion of one to three or one to four.” left out

mesenchymal stem cell [3] = assay: Safranin-O staining of glycosaminoglycans, bioreactor culture; assay type: cell-based, Wistar rats; conditions: tri-copolymer scaffold, kartogenin, 21 days
From the text: Glycosaminoglycans (GAGs) were mainly the content of the extracellular matrix secreted by the chondrocyte.
The cells were distributed on the tri-copolymer scaffold at the beginning of culture. Red was for Safranin-O staining. The Safranin-O staining of the background was from the chondroitin-6-sulfate of the material itself which was one of the Glycosaminoglycans. […] After the cell culturing for 21 days, the cell mass was examined, of which size was about 100 μm.

mesenchymal stem cell [4] = assay: Hematoxylin/Eosin histological examination of cell-material complex sections, bioreactor culture; assay type: cell-based, Wistar rats; conditions: tri-copolymer scaffold
Protocol: After combining the gelatin-hyaluronan-chondroitin tri-copolymer and the stem cell, the coculture construct was seeded and transferred into the dynamic bioreactor for culturing. The morphology of the differentiated cells were stained with Hematoxylin/Eosin, and in the present example, the cell-material complex sections were examined at 3 time points: Day 0, 7 and 21.

hMSC = conditions: cited from earlier work
mesenchymal stem cell [5] = assay: DMMB quantification of glycosaminoglycans in the bioreactor medium; assay type: cell-based, Wistar rats; conditions: tri-copolymer scaffold, kartogenin, day 7, 14 and 21
Protocol: 1,9-dimethylmethlene blue (DMMB) method was used for quantifying Glycosaminoglycans (GAGs). 16 mg of DMMB was dissolved in 5 mL of 95% ethanol and diluted with 3 mL of formic acid and 25.6 mL of NaOH. Double distilled water was used to adjust the final volume to 1 liter, and the solution was maintained at pH 3.5.
250 μL of the DMMB solutions were added into 40 μL of the diluted sample solutions which were from different time points. After reacted in the dark for 10 min, the absorbance of 520 nm was detected and then the GAGs concentration was determined by interpolated onto the standard curve calculated by the chondroitin-6-sulfate.
The GAGs concentrations in the medium were determined by the DMMB method through collecting samples from the bioreactor at different time points.

mesenchymal stem cell [6] = assay: Immunohistochemical staining of aggrecan and type II collagen, bioreactor culture; assay type: cell-based, Wistar rats; conditions: tri-copolymer scaffold, kartogenin
Protocol: The aggrecan and the type II collagen were characteristic proteins of the cartilage cells. The coculture structure was cultured in the dynamic bioreactor and the expressions of the proteins were presented by immunohistochemical staining. The samples culturing under the dynamic culture environment for 7, 14, and 21 days were washed in PBS, immersed in 2.5% formaldehyde for 30 minutes for immobilization. The samples were paraffin-embedded and sectioned into 5 μm. The immunohistochemistry was used to examine the characteristic protein of the cartilage cells which comprises the aggrecan and the type II collagen. After dewaxing by xylene and rehydration, the activity of endogenous peroxidase was cleaned by Hydrogen Peroxide Block reagent (ab80436, abcam, MA, USA). After antigen was repaired, non-specific background protein was bound by Protein Block (ab80436). The primary antibodies (rabbit anti-collagen-II (ab53047), rabbit anti-aggrecan (GTX86902)) of type II collagen and aggrecan were reacted with the tissue slices at 4° C. for 12 hr. After rinsing, the slices were bound with horseradish peroxidase (HRP) conjugated secondary antibody (goat anti-rabbit HRP conjugate). […] Last, the hematoxylin was incubated with the slices at room temperature for 30 minutes for counterstain.
In the present example, the cell-material complex sections were examined at 3 time points: Day 0, 7 and 21. […]

mesenchymal stem cell [7] = assay: Real-time PCR gene expression of mesenchymal stem cell in tri-copolymer scaffold with kartogenin, bioreactor culture; assay type: cell-based, Wistar rats
From the text: as §2
(§3) The mesenchymal stem cells used in the present invention were in the third generation of subculture to ensure the maintenance of the cell morphology. The proliferated stem cells were dissociated by trpsin, collected and condensed to 10^7 cells/mL. 50 μL of the cell solution was seeded on each dry scaffold. The cells were divided into static culture group and bioreactor culture group. The former changed the medium every 2 to 3 days and in the latter, after cells seeding into the scaffold and culturing for one day, it was moved into the bioreactor.
After culturing the tri-copolymer material, the mesenchymal stem cell and kartogenin in the bioreactor for 7, 14 and 21 days, mRNA genes expression were examined. In this example, the control group was the mesenchymal stem cell culturing […].
After culturing in the bioreactor for 7, 14, and 21 days, mRNA gene expression was examined. In this example, the control group was the mesenchymal stem cell culturing on the 2-dimensional plate for 1 day.

mesenchymal stem cell [8] = assay: Live and death staining (Calcein-AM/PI) of mesenchymal stem cell in tri-copolymer scaffold, static culture; assay type: cell-based, Wistar rats; conditions: 1.0 kartogenin, 7 days, vs control group
Protocol: as §3
After the combination of the gelatin-hyaluronan-chondroitin tri-copolymer with the mesenchymal stem cell, the differentiating effects under the 3-dimensional culture were confirmed. Through the live and death staining, the cell condensation during early differentiation stage was examined at the presence of 1.0 kartogenin. […] Apoptosis was the process during chondrogenic differentiation of stem cell.
The fluorescent staining of Calcein-AM and Propidium Iodide (PI) was used to examine the survival distribution of the cells in the scaffold. The former was lipophilic which could easily enter into the living cell and being hydrolyzed to produce fluorescent compounds, calcein, so that only the living cell could be stained with Calcin-AM. […] When PI bound to a DNA double helix, it emitted red fluorescence. […]

[9] = day 7, control MSC on 2-dimensional plate 1 day
[10] = day 14, control MSC on 2-dimensional plate 1 day
[11] = day 21, control MSC on 2-dimensional plate 1 day

Structure (SMILES): O=C(O)c1ccccc1C(=O)Nc1ccc(-c2ccccc2)cc1 [kartogenin]
- TIMPs expression compared to the control group (mesenchymal stem cell [1]; 0.1 μM kartogenin, day 14): 0.91±0.04 fold
- Sox-9 gene expression relative to the control group (mesenchymal stem cell [1]; 1.0 μM kartogenin, 7 days): 1.66±0.27 fold
- Aggrecan gene expression (mesenchymal stem cell [1]; 1.0 μM kartogenin, 7 days, higher than 0.1 μM group (p<0.001)): 3.99±0.63 fold
- Aggrecan gene expression compared to the untreated group (mesenchymal stem cell [1]; 1.0 μM kartogenin, 14 days): 6.44±0.35 fold
- Sox-9 gene expression (mesenchymal stem cell [1]; 1.0 μM kartogenin, day 3 and day 7): up-regulated
- Sox-9 gene expression (mesenchymal stem cell [1]; 1.0 μM kartogenin, day 14): 0.56±0.04 fold
- TIMPs expression compared to the control group (mesenchymal stem cell [1]; 1.0 μM kartogenin, day 14): 1.63±0.249 fold
- early condensation and secretion of glycosaminoglycans (Alcian Blue stain) (mesenchymal stem cell [2]; 0.1 μM kartogenin): promoted the condensation phenomenon
- early condensation and secretion of glycosaminoglycans (Alcian Blue stain) (mesenchymal stem cell [2]; 1.0 μM kartogenin): promoted the condensation phenomenon
- accumulation of GAGs (Safranin-O staining) (mesenchymal stem cell [3]): accumulation of the GAGs was examined on the surface of the cell mass
- size of the cell mass (Safranin-O/Hochest staining) (mesenchymal stem cell [3]): about 100 μm
- cell condensation (Hematoxylin/Eosin section) (mesenchymal stem cell [4]; kartogenin induction, day 7): cell condensation was presence
- lacunae structure (Hematoxylin/Eosin section) (mesenchymal stem cell [4]; kartogenin, day 21): lacunae like structure was examined
- size of the cell mass (Hematoxylin/Eosin section) (mesenchymal stem cell [4]; kartogenin, day 21): about 100 μm
- EC50 (hMSC): 100 nM
- secretion of GAGs into the medium (DMMB method) (mesenchymal stem cell [5]): increased
- type II collagen expression (immunohistochemical staining) (mesenchymal stem cell [6]; day 7 and 21, not distinct at day 0): positively stained
- aggrecan expression (immunohistochemical DAB staining) (mesenchymal stem cell [6]; day 21 compared with day 7): higher expression of aggrecan
- Aggrecan expression compared to the control group (mesenchymal stem cell [7]; day 7): 11.66±4.75 fold
- Col2a1 gene expression compared to the control group (mesenchymal stem cell [7]; day 7): 13.6±4.7 fold
- TIMPs expression (mesenchymal stem cell [7]; day 7): 5.60±1.24 fold
- Sox-9 expression (mesenchymal stem cell [7]; day 7, control MSC cultured 1 day): 2.51±0.90 fold
- Col1a1 expression compared to the control group (mesenchymal stem cell [7]; [9]): 13.19±2.90 fold
- Col10a1 expression (mesenchymal stem cell [7]; [9]): 39.23±9.39 fold
- Runx 2 expression compared to the control group (mesenchymal stem cell [7]; [9]): 8.60±3.55 fold
- Aggrecan expression compared to the control group (mesenchymal stem cell [7]; day 14): 12.33±6.3 fold
- Col2a1 gene expression compared to the control group (mesenchymal stem cell [7]; day 14): 28.26±11.64 fold
- TIMPs expression (mesenchymal stem cell [7]; day 14): 5.79±5.25 fold
- Sox-9 expression (mesenchymal stem cell [7]; day 14, control MSC cultured 1 day): 3.91±2.12 fold
- Col1a1 expression compared to the control group (mesenchymal stem cell [7]; [10]): 17.26±1.38 fold
- Col10a1 expression (mesenchymal stem cell [7]; [10]): 36.08±26.00 fold
- Runx 2 expression compared to the control group (mesenchymal stem cell [7]; [10]): 9.89±3.82 fold
- Aggrecan expression compared to the control group (mesenchymal stem cell [7]; day 21): 9.74±3.83 fold
- Col2a1 gene expression compared to the control group (mesenchymal stem cell [7]; day 21): 40.32±9.13 fold
- TIMPs expression (mesenchymal stem cell [7]; day 21): 3.94±1.08 fold
- Sox-9 expression (mesenchymal stem cell [7]; day 21, control MSC cultured 1 day): 3.06±0.99 fold
- Col1a1 expression compared to the control group (mesenchymal stem cell [7]; [11]): 13.14±6.07 fold
- Col10a1 expression (mesenchymal stem cell [7]; [11]): 5.56±5.23 fold
- Runx 2 expression compared to the control group (mesenchymal stem cell [7]; [11]): 7.35±1.96 fold
- cell condensation (live and death staining) (mesenchymal stem cell [8]): cell condensation was occurred
- proportion of cell death (live and death staining) (mesenchymal stem cell [8]): higher
